Measured values taken from US11464770B2, “Anticancer pharmaceutical composition” (NATIONAL CANCER CENTER, priority 2016, dated 2022).
Read-outs that look alike come from different tables or passages of the source.

What was measured:
[1] = test system: lung cancer cell lines (e.g. NCI-H23, NCI-H1229); assay: Cell based assay, cell viability (CellTiter-Glo), lung cancer cell lines; settings: Homo sapiens
Experimental: (§1) Commercially available bladder cancer, prostate cancer, lung cancer, breast cancer, blood cancer, pancreatic cancer, colorectal cancer, brain cancer, neuroblastoma, melanoma, liver cancer, cervical carcinoma, ovarian cancer, renal cancer, and papilloma cell lines were each treated with trypsin-EDTA and cultured, followed by being seeded in each well of a 96 well plate. After 24 hours of treatment at constant temperature, the respective cells were treated with the candidate compound so that a final concentration became 0 to 2 μM. The treated cells were additionally cultured for 72 hours, and cell viability was measured by using an ATP detection method (CellTiter-Glo® Luminescent Cell Viability Assay, Promega).

renal cancer cell lines = assay: Cell based assay, cell viability (CellTiter-Glo), renal cancer cell lines; settings: Homo sapiens; ACHN cells
Experimental: as §1

[2] = A549 cells, 72 hours treatment, CellTiter-Glo, read-out: IC50, lung cancer cell line A549
[3] = DMS 114 cells, 72 hours treatment, CellTiter-Glo, read-out: IC50, lung cancer cell line DMS 114
[4] = MRC-5 cells, 72 hours treatment, CellTiter-Glo, read-out: IC50
[5] = NCI-H23 cells, 72 hours treatment, CellTiter-Glo, read-out: IC50, lung cancer cell line NCI-H23
[6] = NCI-H460 cells, 72 hours treatment, CellTiter-Glo, read-out: IC50, lung cancer cell line NCI-H460
[7] = NCI-H522 cells, 72 hours treatment, CellTiter-Glo, read-out: IC50, lung cancer cell line NCI-H522
[8] = NCI-H1299 cells, 72 hours treatment, CellTiter-Glo, read-out: IC50, lung cancer cell line NCI-H1299
[9] = NCI-H1437 cells, 72 hours treatment, CellTiter-Glo, read-out: IC50, lung cancer cell line NCI-H1437
[10] = Lung cancer cell line A549, 72 hours, cell viability (CellTiter-Glo), read-out: IC50, A549
[11] = Lung cancer cell line DMS 114, 72 hours, cell viability (CellTiter-Glo), read-out: IC50, DMS 114
[12] = Lung cancer cell line NCI-H23, 72 hours, cell viability (CellTiter-Glo), read-out: IC50, NCI-H23
[13] = Lung cancer cell line NCI-H460, 72 hours, cell viability (CellTiter-Glo), read-out: IC50, NCI-H460
[14] = Lung cancer cell line NCI-H522, 72 hours, cell viability (CellTiter-Glo), read-out: IC50, NCI-H522
[15] = Lung cancer cell line NCI-H1299, 72 hours, cell viability (CellTiter-Glo), read-out: IC50, NCI-H1299
[16] = Lung cancer cell line NCI-H1437, 72 hours, cell viability (CellTiter-Glo), read-out: IC50, NCI-H1437
[17] = MRC-5 (listed under Lung cancer cell line), 72 hours, cell viability (CellTiter-Glo), read-out: IC50, MRC-5

Row | IC50 [1, 2] [µM] | IC50 [1, 3] [µM] | IC50 [1, 5] [µM] | IC50 [1, 6] [µM] | IC50 [1, 7] [µM] | IC50 [1, 8] [µM] | IC50 [1, 9] [µM] | IC50 (renal cancer cell lines) [µM] | IC50 [1, 10] [µM] | IC50 [1, 11] [µM] | IC50 [1, 12] [µM] | IC50 [1, 13] [µM] | IC50 [1, 14] [µM] | IC50 [1, 15] [µM] | IC50 [1, 16] [µM] | Compound | IC50 [1, 4] [µM] | IC50 [1, 17] [µM]
1 | > 2 | > 2 | 1.64 | 1.68 | > 2 | 1.81 | > 10 | 1.81 |  |  |  |  |  |  |  | CC(=O)c1c([S+]([O-])Cc2ccc(C#N)s2)[nH]c2c(Br)ccc(Cl)c2c1=O (stereo not drawn) [Compound 98, 5-(((3-acetyl-8-bromo-5-chloro-4-oxo-1,4-dihydroquinolin-2-yl)sulfinyl)methyl)thiophene-2-carbonitrile] | > 2 | 
2 |  |  |  |  |  |  |  | > 2 | > 2 | > 2 | > 2 | > 2 | > 2 | > 2 | > 10 | COCCNc1ccc(C[S+]([O-])c2[nH]c3c(Br)ccc(Cl)c3c(=O)c2C(C)=O)cn1 (stereo not drawn) [Compound 105, 3-acetyl-8-bromo-5-chloro-2-(((6-((2-methoxyethyl)amino)pyridin-3-yl)methyl)sulfinyl)quinolin-4(1H)-one] |  | > 2
3 | > 2 | > 2 | > 2 | > 2 | > 2 | > 2 | > 10 | > 2 |  |  |  |  |  |  |  | CC(=O)c1c([S+]([O-])CC#N)[nH]c2c(Br)ccc(Cl)c2c1=O (stereo not drawn) [Compound 65, 2-((3-acetyl-8-bromo-5-chloro-4-oxo-1,4-dihydroquinolin-2-yl)sulfinyl)acetonitrile] | > 2 | 
4 | > 2 | > 2 | 1.34 | > 2 | > 2 | 1.88 | > 10 | > 2 |  |  |  |  |  |  |  | CC(=O)c1c([S+](C)[O-])[nH]c2c(Br)ccc(Cl)c2c1=O (stereo not drawn) [Compound 1, 3-acetyl-8-bromo-5-chloro-2-(methylsulfinyl)quinolin-4(1H)-one] | 1.34 | 
5 |  |  |  |  |  |  |  | > 2 | > 2 | > 2 | > 2 | > 2 | > 2 | > 2 | > 10 | CC(=O)c1c([S+]([O-])Cc2ccc(N)nc2)[nH]c2c(Br)ccc(Cl)c2c1=O (stereo not drawn) [Compound 100, 3-acetyl-2-(((6-aminopyridin-3-yl)methyl)sulfinyl)-8-bromo-5-chloroquinolin-4(1H)-one] |  | > 2
6 | > 2 | > 2 | 1.7 | > 2 | > 2 | > 2 | > 10 | > 2 |  |  |  |  |  |  |  | CC(=O)c1c([S+]([O-])Cc2ccc(C(=O)c3ccccc3)cc2)[nH]c2c(Br)ccc(Cl)c2c1=O (stereo not drawn) [Compound 63, 3-acetyl-2-((4-benzoylbenzyl)sulfinyl)-8-bromo-5-chloroquinolin-4(1H)-one] | > 2 | 
7 | 1.78 | > 2 | 1.13 | 1.62 | > 2 | 1.31 | > 10 | > 2 |  |  |  |  |  |  |  | CC(=O)c1c([S+]([O-])Cc2ccc(S(F)(F)(F)(F)F)cc2F)[nH]c2c(Br)ccc(Cl)c2c1=O (stereo not drawn) [Compound 69, 3-acetyl-8-bromo-5-chloro-2-((2-fluoro-4-(pentafluoro-16-sulfanyl)benzyl)sulfinyl)quinolin-4(1H)-one] | 1.05 | 
8 | > 2 | > 2 | 1.51 | > 2 | > 2 | > 2 | > 10 | > 2 |  |  |  |  |  |  |  | CC(=O)c1c([S+]([O-])Cc2cccc(I)c2)[nH]c2c(Br)ccc(Cl)c2c1=O (stereo not drawn) [Compound 48, 3-acetyl-8-bromo-5-chloro-2-((3-iodobenzyl)sulfinyl)quinolin-4(1H)-one] | > 2 | 
9 | > 2 | > 2 | > 2 | > 2 | > 2 | > 2 | > 10 | > 2 |  |  |  |  |  |  |  | CC(=O)c1c(SCc2ccccc2)[nH]c2c(Br)ccc(Cl)c2c1=O [Compound 3, 3-acetyl-2-(benzylthio)-8-bromo-5-chloroquinolin-4(1H)-one] | > 2 | 

Second part, the molecule before the results:

Row | Compound | IC50 [1, 2] [µM] | IC50 [1, 3] [µM] | IC50 [1, 5] [µM] | IC50 [1, 6] [µM] | IC50 [1, 7] [µM] | IC50 [1, 8] [µM] | IC50 [1, 9] [µM] | IC50 (renal cancer cell lines) [µM] | IC50 [1, 10] [µM] | IC50 [1, 11] [µM] | IC50 [1, 12] [µM] | IC50 [1, 13] [µM] | IC50 [1, 14] [µM] | IC50 [1, 15] [µM] | IC50 [1, 16] [µM] | IC50 [1, 4] [µM] | IC50 [1, 17] [µM]
10 | CC(=O)c1c(SCc2ccc([N+](=O)[O-])cc2)[nH]c2c(Br)ccc(Cl)c2c1=O [Compound 32, 3-acetyl-8-bromo-5-chloro-2-((4-nitrobenzyl)thio)quinolin-4(1H)-one] | > 2 | > 2 | > 2 | > 2 | > 2 | > 2 | > 10 | > 2 |  |  |  |  |  |  |  | > 2 | 
11 | CSc1c(C(C)=O)c(=O)c2c(Cl)ccc(Br)c2n1C(C)=O [Compound 18, 1,1′-(8-bromo-5-chloro-2-(methylthio)-4-oxoquinoline-1,3(4H)-diyl)bis(ethan-1-one)] | > 2 | > 2 | > 2 | > 2 | > 2 | > 2 | > 10 | > 2 |  |  |  |  |  |  |  | > 2 | 
12 | CSc1c(C(C)=O)c(=O)c2c(Cl)ccc(Br)c2n1S(=O)(=O)c1ccc(C(C)(C)C)cc1 [Compound 40, 3-acetyl-8-bromo-1-((4-(tert-butyl)phenyl)sulfonyl)-5-chloro-2-(methylthio)quinolin-4(1H)-one] | > 2 | > 2 | > 2 | > 2 | > 2 | > 2 | > 10 | > 2 |  |  |  |  |  |  |  | > 2 | 
13 | CC(=O)c1c(Sc2ccccc2)[nH]c2c(Br)ccc(Cl)c2c1=O [Compound 12, 3-acetyl-8-bromo-5-chloro-2-(phenylthio)quinolin-4(1H)-one] | > 2 | > 2 | > 2 | > 2 | > 2 | > 2 | > 10 | > 2 |  |  |  |  |  |  |  | > 2 | 
14 | COCSc1[nH]c2c(Br)ccc(Cl)c2c(=O)c1C(C)=O [Compound 61, 3-acetyl-8-bromo-5-chloro-2-((methoxymethyl)thio)quinolin-4(1H)-one] | > 2 | > 2 | > 2 | > 2 | > 2 | > 2 | > 10 | > 2 |  |  |  |  |  |  |  | > 2 | 
15 | CC(=O)c1c(SCc2cc(F)cc(F)c2)[nH]c2c(Br)ccc(Cl)c2c1=O [Compound 45, 3-acetyl-8-bromo-5-chloro-2-((3,5-difluorobenzyl)thio)quinolin-4(1H)-one] | > 2 | > 2 | > 2 | > 2 | > 2 | > 2 | > 10 | > 2 |  |  |  |  |  |  |  | > 2 | 
16 | CC(=O)c1c([S+](C)[O-])n(S(=O)(=O)c2ccc(C(C)(C)C)cc2)c2c(Br)ccc(Cl)c2c1=O (stereo not drawn) [Compound 42, 3-acetyl-8-bromo-1-((4-(tert-butyl)phenyl)sulfonyl)-5-chloro-2-(methylsulfinyl)quinolin-4(1H)-one] | > 2 | > 2 | 1.84 | > 2 | > 2 | > 2 | > 10 | > 2 |  |  |  |  |  |  |  | > 2 | 
17 | CSc1[nH]c2ccc(F)cc2c(=O)c1C(C)=O [Compound 8, 1-(6-fluoro-4-hydroxy-2-(methylthio)quinolin-3-yl)ethan-1-one] | > 2 | > 2 | > 2 | > 2 | > 2 | > 2 | > 10 | > 2 |  |  |  |  |  |  |  | > 2 | 
18 | CC(=O)c1c([S+]([O-])Cc2ccccc2)n(C(=O)c2ccc(Br)cc2)c2c(Br)ccc(Cl)c2c1=O (stereo not drawn) [Compound 20, 3-acetyl-2-(benzylsulfinyl)-8-bromo-1-(4-bromobenzoyl)-5-chloroquinolin-4(1H)-one] | > 2 | > 2 | 1.39 | 1.58 | > 2 | 1.58 | > 2 | > 2 |  |  |  |  |  |  |  | > 2 | 
19 | CC(=O)c1c(SCc2ccc(Cl)cc2)[nH]c2c(Br)ccc(Cl)c2c1=O [Compound 10, 3-acetyl-8-bromo-5-chloro-2-((4-chlorobenzyl)thio)quinolin-4(1H)-one] | > 2 | > 2 | > 2 | > 2 | > 2 | > 2 | > 10 | > 2 |  |  |  |  |  |  |  | > 2 | 
20 | CC(=O)c1c([S+](C)[O-])n(C(C)=O)c2c(Br)ccc(Cl)c2c1=O (stereo not drawn) [Compound 19, 1,1′-(8-bromo-5-chloro-2-(methylsulfinyl)-4-oxoquinoline-1,3(4H)-diyl)bis(ethan-1-one)] | > 2 | > 2 | > 2 | > 2 | > 2 | > 2 | > 10 | > 2 |  |  |  |  |  |  |  | > 2 | 
21 | CC(=O)c1c([S+]([O-])Cc2ccccc2)nc2c(Br)ccc(Cl)c2c1O (stereo not drawn) [Compound 53, 1-(2-(benzylsulfinyl)-8-bromo-5-chloro-4-hydroxyquinolin-3-yl)ethan-1-one] | > 2 | > 2 | > 2 | > 2 | > 2 | > 2 | > 10 | > 2 |  |  |  |  |  |  |  | > 2 | 
22 | CC(=O)c1c([S+]([O-])Cc2cc(C)on2)[nH]c2c(F)ccc(F)c2c1=O (stereo not drawn) [Compound 82, 3-acetyl-5,8-difluoro-2-(((5-methylisoxazol-3-yl)methyl)sulfinyl)quinolin-4(1H)-one] | > 2 | > 2 | > 2 | > 2 | > 2 | > 2 | > 10 | > 2 |  |  |  |  |  |  |  | > 2 | 
